Results on three compounds are retold here after article PMC8321398, “The discovery of a novel series of compounds with single-dose efficacy against juvenile and adult Schistosoma species” (PLoS Neglected Tropical Diseases, 2021).

For orientation: AUC(0-inf) means the area under the concentration-time curve extrapolated to infinity. As a reminder, the Vd is a proportionality between amount in the body and measured concentration, not a real space. Read a low Vd as little distribution into tissue. By bioavailability is commonly meant the share of a dose that reaches the circulation, judged against a reference dose that is usually intravenous. High values mean much systemic uptake, low ones little systemic uptake. The term EC50 denotes the concentration needed to bring the measured effect to its halfway point. A lower EC50 goes with an effect from little substance.

The subject of data set [1] is panel of 38 in vitro toxicity targets (receptors, channels, transporters). In words: Broad selectivity panel (Cerep), radioligand receptor binding assays. The following applies: 1uM. The procedure:
Selectivity was assessed at Cerep (Celle l’ Evescault, France), as described in the Cerep catalog, against a panel of in vitro radioligand receptor binding assays with 38 different receptors, channels, and transporters selected as targets to avoid for safety reasons (beta 1, beta 2, NMDA, MAO-A, 5-HT1B, CCK1 (CCKA), BZD (central), delta (DOP), A2A, CB1, CB2, D1, D2S, ETA, H1, H2, M1, M2, M3, 5-HT1A, 5-HT2A, 5-HT2B, 5-HT3, GR, AR, V1a, kappa (KOP), mu (MOP), alpha 1A, alpha 2A, Ca2+ channel, Potassium Channel, Kv channel, Na+ channel, N neuronal alpha 4 beta 2, norepinephrine transporter, dopamine transporter, 5-HT transporter). The specific ligand binding to the receptors is defined as the difference between the total binding, and the nonspecific binding determined in the presence of an excess of unlabelled ligand.

A further data set can be described thus: in vivo. The following applies: rat.
The conditions of data set [2]: rat, in vivo.
Data set [3] in a line: Binding in the assay medium. Format: in vitro ADME. The source says: (§1) These early experiments also allowed us to use the PK Tool to predict the dose to use in the mouse efficacy models. As part of the prediction we need to recognise that the measured in vitro potency will be different from that in whole blood. […] They also display high protein binding in plasma, assay media and microsomal stability assays. […] Measurement of binding of LSHTM-3520 in the assay medium gave a free fraction, Fu of 0.0014. An experiment was run using LSHTM-3520 to determine whether the potency shift on varying the plasma protein level in the in vitro assay accords with prediction.

The test system of another data set is S. mansoni worms. As to the kind of experiment: In vitro potency assay with varied FBS level. The note with it: Schistosoma mansoni. The data set is classed as cell-based.
Description: as §1

In the case of `Fc1ccc(-c2cn3c(-c4ccc5[nH]ncc5c4F)c(C(F)(F)F)nc3cn2)cc1C(F)(F)C(F)(F)F` [LSHTM-3645], the “activity against panel of 38 in vitro toxicity targets” value in data set [1] was “no reproduceable activity”.
On to `Fc1ccc(-c2cn3c(-c4ccc5[nH]ncc5c4F)c(C(F)(F)F)nc3cn2)cc1C(F)(F)F` [LSHTM-3642, 3-(4-fluoro-1H-indazol-5-yl)-6-(4-fluoro-3-(trifluoromethyl)phenyl)-2-(trifluoromethyl)imidazo[1,2-a]pyrazine], for which, in the data set “in vivo” (iv, 1 mg/kg), the AUC(0-inf) is 5000 ng·h/mL and the Vd was 8.8 L/kg. In the data set “in vivo” (po, 10 mg/kg), this compound yielded a bioavailability of 67%. Moreover, the Clobs in data set [2] (iv, 1 mg/kg) was 3.33 mL/min/kg. In data set [2] (po, 10 mg/kg, 24 h), the “Plasma conc @ 24 h after oral dose” value came to 357 ng/mL.
For the compound `CC(C)c1nc2cnc(-c3ccc(F)c(C(F)(F)F)c3)cn2c1-c1c(F)cc(O)cc1F` [LSHTM-3520], in data set [3] (bovine, assay medium of the in vitro potency assay, read-out: free fraction, Fu), the fraction unbound was determined as 0.0014. The compound also registered a recovery in data set [3] (bovine, in vitro potency assay medium with Foetal Bovine Serum, in vitro assay medium) of 69.3%. Also, the Assay medium %binding in data set [3] (in vitro assay medium) is listed as 99.86%. Besides, the values for the EC50 in the data set with S. mansoni worms (3% FBS), in the data set with S. mansoni worms (10% FBS) and in the data set on S. mansoni worms (30% FBS) were 8 nM, 24.4 nM and 75 nM, respectively.
